Experiments:
SARS-CoV-2 = assay type: cell-based; conditions: for IC50: read-out: VeroE6 IC50
EBOV trVLP = assay type: cell-based, Ebola virus; conditions: for IC50: read-out: EBOV trVLP IC50
X4 strain of HIV-1 = conditions: cited from earlier work
SARS-CoV-2 RNA synthesis = assay type: cell-based
EBOV trVLP RNA synthesis = assay type: cell-based, Ebola virus
[1] = human
EBOV infection = conditions: in vivo; cited from earlier work
Covid-19 = conditions: human, in vivo; cited from earlier work
Ce-FF = assay type: cell-based; conditions: read-out: Ce-FF IC50

Which “anti-SARS-CoV-2 activity in Vero E6 cells” value (from here on “anti-SARS-CoV-2 activity”) (SARS-CoV-2) does the source give for CCCCCCCCCCOCCC(=O)O [4-Oxatetradecanoic acid, reference compound] here?
Its value is “did not exhibit any anti-SARS-CoV-2 activity”.

And the “activity against EBOV trVLP” value (EBOV trVLP)?
Its value is “no inhibitory activity”.

With CCCCCCCCCCCCCC(=O)OC[C@@H]1O[C@H](n2cc(F)c(N)nc2=O)CS1 [5′-O-tetradecanoyl derivative of FTC] as the molecule, how does the “fold more activity than FTC” value (X4 strain of HIV-1) read?
The value was 19 fold.

Which “anti-SARS-CoV-2 activity” value (SARS-CoV-2) does the source give for [N-]=[N+]=NCCCCCCCCCCCC(=O)O [12-Azidododecanoic acid, reference compound] here?
The value was “did not exhibit any anti-SARS-CoV-2 activity”.

What about the “activity against EBOV trVLP” value (EBOV trVLP) of the same molecule?
Its value is “no inhibitory activity”.

With CCSCCCCCCCCCCCC(=O)O [12-thioethyldodecanoic acid, reference compound] as the molecule, how does the “anti-SARS-CoV-2 activity” value (SARS-CoV-2) read?
Its value is “did not exhibit any anti-SARS-CoV-2 activity”.

And the “activity against EBOV trVLP” value (EBOV trVLP)?
The value was “no inhibitory activity”.

What does the source list for CCCCCCCCCCCCCC(=O)O[C@@H]1[C@H](O)[C@@H](CO[P@@](=O)(N[C@H](C)C(=O)OCC(CC)CC)Oc2ccccc2)O[C@@]1(C#N)c1ccc2c(N)ncnn12 [Compound 3a, (2R,3R,4R,5R)-2-(4-Aminopyrrolo[2,1-f][1,2,4]triazin-7-yl)-2-cyano-5-((((((R)-1-(2-ethylbutoxy)-1-oxopropan-2-yl)amino)(phenoxy)phosphoryl)oxy)methyl)-4-hydroxytetra-hydrofuran-3-yl tetradecanoate]?
SARS-CoV-2 viral RNA synthesis (SARS-CoV-2 RNA synthesis): significant reduction in viral RNA synthesis; EBOV trVLP viral RNA synthesis (EBOV trVLP RNA synthesis): significant reduction in viral RNA synthesis

With CCCCCCCCCCOCCC(=O)O[C@@H]1[C@H](O)[C@@H](CO[P@@](=O)(N[C@H](C)C(=O)OCC(CC)CC)Oc2ccccc2)O[C@@]1(C#N)c1ccc2c(N)ncnn12 [Compound 3b] as the molecule, how does the “activity against EBOV trVLP” value (EBOV trVLP) read?
The value was “comparable with RDV”.

For CCSCCCCCCCCCCCC(=O)O[C@@H]1[C@H](O)[C@@H](CO[P@@](=O)(N[C@H](C)C(=O)OCC(CC)CC)Oc2ccccc2)O[C@@]1(C#N)c1ccc2c(N)ncnn12 [Compound 3e], which “activity against EBOV trVLP” value (EBOV trVLP) is on record?
The value was “comparable with RDV”.

For CCCCCCCCCCOCCC(=O)O[C@H]1[C@@H](O)[C@](C#N)(c2ccc3c(N)ncnn23)O[C@@H]1CO[P@@](=O)(N[C@H](C)C(=O)OCC(CC)CC)Oc1ccccc1 [Compound 4b, (2R,3S,4R,5R)-5-(4-Aminopyrrolo[2,1-f][1,2,4]triazin-7-yl)-5-cyano-2-((((((R)-1-(2-ethylbutoxy)-1-oxopropan-2-yl)amino)(phenoxy)phosphoryl)oxy)methyl)-4-hydroxy-tetrahydrofuran-3-yl-3-(decyloxy)propanoate], which “SARS-CoV-2 viral RNA synthesis” value (SARS-CoV-2 RNA synthesis) is on record?
The value was “significant reduction in viral RNA synthesis”.

What about the “EBOV trVLP viral RNA synthesis” value (EBOV trVLP RNA synthesis) of the same molecule?
Its value is “significant reduction in viral RNA synthesis”.

And the “activity against EBOV trVLP” value (EBOV trVLP)?
Its value is “comparable activity with RDV”.

With CCC(CC)COC(=O)[C@@H](C)N[P@](=O)(OC[C@H]1O[C@@](C#N)(c2ccc3c(N)ncnn23)[C@H](O)[C@@H]1OC(=O)CCCCCCCCCCCN=[N+]=[N-])Oc1ccccc1 [Compound 4c, (2R,3S,4R,5R)-5-(4-Aminopyrrolo[2,1-f][1,2,4]triazin-7-yl)-5-cyano-2-((((((R)-1-(2-ethylbutoxy)-1-oxopropan-2-yl)amino)(phenoxy)phosphoryl)oxy)methyl)-4-hydroxy-tetrahydrofuran-3-yl-12-azidododecanoate] as the molecule, how does the “active triphosphate metabolite observed at 8 h” value [1] read?
Its value is 11.3%.

And the “active triphosphate metabolite observed at 12 h” value [1]?
The value was 10.04%.

And the “active triphosphate metabolite observed at 24 h” value [1]?
Its value is 19.01%.

Which “SARS-CoV-2 viral RNA synthesis” value (SARS-CoV-2 RNA synthesis) does the source give for CCCCCCCCCCCCCC(=O)O[C@H]1[C@@H](OC(=O)CCCCCCCCCCCCC)[C@](C#N)(c2ccc3c(N)ncnn23)O[C@@H]1CO[P@@](=O)(N[C@H](C)C(=O)OCC(CC)CC)Oc1ccccc1 [Compound 5a, ((2R,3R,4R,5R)-2-(4-Aminopyrrolo[2,1-f][1,2,4]triazin-7-yl)-2-cyano-5-((((((R)-1-(2-ethylbutoxy)-1-oxopropan-2-yl)amino)(phenoxy)phosphoryl)oxy)methyl)tetrahydro-furan-3,4-diyl ditetradecanoate] here?
Its value is “significant reduction in viral RNA synthesis was observed for all compounds apart from disubstituted compound 5a”.

With CCCCCCCCCCCCCC(=O)O [Myristic acid, reference compound] as the molecule, how does the “anti-SARS-CoV-2 activity” value (SARS-CoV-2) read?
Its value is “did not exhibit any anti-SARS-CoV-2 activity”.

What about the “activity against EBOV trVLP” value (EBOV trVLP) of the same molecule?
Its value is “no inhibitory activity”.

With CCC(CC)COC(=O)[C@H](C)N[P@](=O)(OC[C@H]1O[C@@](C#N)(c2ccc3c(N)ncnn23)[C@H](O)[C@@H]1O)Oc1ccccc1 [RDV, remdesivir, reference compound] as the molecule, how does the “SARS-CoV-2 viral RNA synthesis” value (SARS-CoV-2 RNA synthesis) read?
The value was “significant reduction in viral RNA synthesis”.

And the mortality (EBOV infection)?
Its mortality is 53%.

What about the “EBOV trVLP viral RNA synthesis” value (EBOV trVLP RNA synthesis) of the same molecule?
Its value is “significant reduction in viral RNA synthesis”.

What about the “active triphosphate metabolite observed at 12 h” value [1] of the same molecule?
Its value is “approximately 22.2%”.

What about the “active triphosphate metabolite observed at 24 h” value [1] of the same molecule?
Its value is 26.3%.

And the “degradation after 1 h” value [1]?
Its value is “around 13%”.

What about the “median time to recovery” value (Covid-19) of the same molecule?
Its value is 11 days.

What about the mortality rate (Covid-19) of the same molecule?
Its mortality rate is 7.1%.

For “(2R,3R,4R,5R)-2-(4-Aminopyrrolo[2,1-f][1,2,4]triazin-7-yl)-2-cyano-5-((((((R)-1-(2-ethylbutoxy)-1-oxopropan-2-yl)amino)(phenoxy)phosphoryl)oxy)methyl)-4-hydroxytetra hydrofuran-3-yl palmitate [Compound 3c]”, which CC50 (Huh-7 cells) is on record?
The CC50 was 27 µM.

What about the IC50 (Ce-FF) of the same molecule?
The IC50 was over 50 µM.

What about the IC50 (SARS-CoV-2) of the same molecule?
The IC50 was 4.6 µM.

And the IC50 (EBOV trVLP)?
Its IC50 is 0.5 µM.

What about the CC50 (Vero E6 cells) of the same molecule?
Its CC50 is over 50 µM.

Which results are given for “(2R,3R,4R,5R)-2-(4-Aminopyrrolo[2,1-f][1,2,4]triazin-7-yl)-2-cyano-5-((((((R)-1-(2-ethylbutoxy)-1-oxopropan-2-yl)amino)(phenoxy)phosphoryl)oxy)methyl)tetrahydrofuran-3,4-diyl ditetradecanoate [Compound 5b]”?
CC50 (Huh-7 cells): > 50 µM; IC50 (Ce-FF): > 50 µM; IC50 (SARS-CoV-2): > 50 µM; EBOV trVLP viral RNA synthesis (EBOV trVLP RNA synthesis): significant reduction in viral RNA synthesis was observed for all compounds apart from disubstituted compound 5b; activity against EBOV trVLP (EBOV trVLP): no inhibitory activity; IC50 (EBOV trVLP): > 50 µM; CC50 (Vero E6 cells): > 50 µM

B1: MAB114 (antibody, chains of the INN, looked up, V domains shown)
VH: EVQLVESGGGLIQPGGSLRLSCAASGFALRMYDMHWVRQTIDKRLEWVSAVGPSGDTTYADSVKGRFAVSRENAKNSLSLQMNSLTAGDTAIYYCVRSDRGVAGLFDSWGQGILVTVSS
VL: DIQMTQSPSSLSASVGDRITITCRASQAFDNYVAWYQQRPGKVPKLLISAASALHAGVPSRFSGSGSGTHFTLTISSLQPEDVATYYCQNYNSAPLTFGGGTKVEIK
For B1, which mortality (EBOV infection) is on record?
Its mortality is 35%.
